Here are results for two molecules from PMC9030254, “Target Hopping from Protein Kinases to PXR: Identification of Small-Molecule Protein Kinase Inhibitors as Selective Modulators of Pregnane X Receptor from TüKIC Library” (Cells, 2022).

Test in all cases: Kinase profiling
Format in all cases: biochemical

The target in one assay is T1, PRKG2 (Homo sapiens, UniProt Q13237).
T1 construct: purchased ProQinase (Freiburg, Germany)
T1 sequence (Q13237 1-762): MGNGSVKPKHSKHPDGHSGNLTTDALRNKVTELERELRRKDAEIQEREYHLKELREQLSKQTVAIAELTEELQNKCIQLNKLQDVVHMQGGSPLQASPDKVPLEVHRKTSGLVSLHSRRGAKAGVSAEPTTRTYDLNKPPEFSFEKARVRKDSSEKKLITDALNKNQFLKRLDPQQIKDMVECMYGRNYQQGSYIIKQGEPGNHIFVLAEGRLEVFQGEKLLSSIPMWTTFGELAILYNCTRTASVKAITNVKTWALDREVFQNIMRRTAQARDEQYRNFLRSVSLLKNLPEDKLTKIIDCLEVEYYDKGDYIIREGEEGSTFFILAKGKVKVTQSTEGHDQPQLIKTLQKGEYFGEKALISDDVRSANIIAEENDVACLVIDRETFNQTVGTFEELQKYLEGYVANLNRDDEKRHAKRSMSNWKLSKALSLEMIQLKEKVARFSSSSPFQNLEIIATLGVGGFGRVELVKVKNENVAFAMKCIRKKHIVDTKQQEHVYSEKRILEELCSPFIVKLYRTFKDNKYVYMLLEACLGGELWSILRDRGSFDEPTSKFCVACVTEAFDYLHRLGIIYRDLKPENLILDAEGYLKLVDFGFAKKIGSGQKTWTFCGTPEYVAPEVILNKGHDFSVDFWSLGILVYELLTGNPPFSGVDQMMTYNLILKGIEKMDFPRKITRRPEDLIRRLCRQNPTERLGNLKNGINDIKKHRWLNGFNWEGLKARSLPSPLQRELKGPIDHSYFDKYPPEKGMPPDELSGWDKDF
As for the experimental part: (§1) The analysis was performed by ProQinase (Freiburg, Germany).

The next assay has as its target T2, PAK6 (Homo sapiens, UniProt Q9NQU5).
T2 construct: purchased ProQinase (Freiburg, Germany)
As for the experimental part: as §1

Another assay has as its target T3, CDK4/CycD2 (Homo sapiens, UniProt P11802).
T3 construct: purchased ProQinase (Freiburg, Germany)
On the procedure: as §1

The target in the next assay is T4, VRK1 (Homo sapiens, UniProt Q99986).
T4 construct: purchased ProQinase (Freiburg, Germany)
T4 sequence (Q99986 1-396): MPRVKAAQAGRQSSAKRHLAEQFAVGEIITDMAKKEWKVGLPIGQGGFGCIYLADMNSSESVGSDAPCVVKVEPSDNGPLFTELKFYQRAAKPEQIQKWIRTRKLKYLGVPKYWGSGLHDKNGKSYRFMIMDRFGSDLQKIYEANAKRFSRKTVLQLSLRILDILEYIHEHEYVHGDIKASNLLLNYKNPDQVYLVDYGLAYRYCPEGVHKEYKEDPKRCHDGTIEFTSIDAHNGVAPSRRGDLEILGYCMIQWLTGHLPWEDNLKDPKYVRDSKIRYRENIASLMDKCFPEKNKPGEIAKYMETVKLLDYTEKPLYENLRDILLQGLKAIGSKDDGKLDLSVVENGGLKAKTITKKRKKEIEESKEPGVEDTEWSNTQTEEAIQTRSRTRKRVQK
On the procedure:
as §1

Another assay addresses T5, NEK1 (Homo sapiens, UniProt Q96PY6).
T5 construct: purchased ProQinase (Freiburg, Germany)
T5 sequence (Q96PY6 1-1258): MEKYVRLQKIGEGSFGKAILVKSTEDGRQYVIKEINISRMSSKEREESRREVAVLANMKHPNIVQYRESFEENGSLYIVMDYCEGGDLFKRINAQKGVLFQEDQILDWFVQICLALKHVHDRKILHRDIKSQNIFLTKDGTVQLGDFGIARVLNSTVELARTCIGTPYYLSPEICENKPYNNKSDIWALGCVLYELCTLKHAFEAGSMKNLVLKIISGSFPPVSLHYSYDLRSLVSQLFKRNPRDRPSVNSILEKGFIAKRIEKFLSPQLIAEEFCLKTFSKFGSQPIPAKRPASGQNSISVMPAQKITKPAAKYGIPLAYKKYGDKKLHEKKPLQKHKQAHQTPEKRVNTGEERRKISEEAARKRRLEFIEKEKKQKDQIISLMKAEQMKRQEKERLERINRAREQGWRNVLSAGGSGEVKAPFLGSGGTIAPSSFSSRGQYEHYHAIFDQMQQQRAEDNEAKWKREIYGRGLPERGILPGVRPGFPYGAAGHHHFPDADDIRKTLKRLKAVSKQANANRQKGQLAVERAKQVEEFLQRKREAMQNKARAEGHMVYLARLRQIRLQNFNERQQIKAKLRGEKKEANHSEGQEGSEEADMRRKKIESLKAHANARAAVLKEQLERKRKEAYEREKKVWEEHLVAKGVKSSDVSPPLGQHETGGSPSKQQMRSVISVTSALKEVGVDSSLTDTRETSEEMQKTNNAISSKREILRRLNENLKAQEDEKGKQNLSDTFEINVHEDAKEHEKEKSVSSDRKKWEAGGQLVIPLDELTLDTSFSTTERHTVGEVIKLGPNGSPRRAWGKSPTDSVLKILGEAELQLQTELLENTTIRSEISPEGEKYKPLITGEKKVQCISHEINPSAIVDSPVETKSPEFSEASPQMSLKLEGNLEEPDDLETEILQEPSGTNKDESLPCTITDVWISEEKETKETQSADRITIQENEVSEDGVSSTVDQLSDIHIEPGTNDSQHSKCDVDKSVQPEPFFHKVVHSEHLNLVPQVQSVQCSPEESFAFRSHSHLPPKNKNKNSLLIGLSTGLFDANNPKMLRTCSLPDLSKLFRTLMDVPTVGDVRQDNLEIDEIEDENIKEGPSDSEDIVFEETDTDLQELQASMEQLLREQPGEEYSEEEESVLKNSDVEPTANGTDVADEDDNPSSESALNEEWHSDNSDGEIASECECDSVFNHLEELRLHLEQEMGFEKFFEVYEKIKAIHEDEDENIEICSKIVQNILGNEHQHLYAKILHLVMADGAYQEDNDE
On the procedure: as §1

The target of a further assay is T6, CDK18/CycY (Homo sapiens, UniProt Q07002).
T6 construct: purchased ProQinase (Freiburg, Germany)
T6 sequence (Q07002 whole entry): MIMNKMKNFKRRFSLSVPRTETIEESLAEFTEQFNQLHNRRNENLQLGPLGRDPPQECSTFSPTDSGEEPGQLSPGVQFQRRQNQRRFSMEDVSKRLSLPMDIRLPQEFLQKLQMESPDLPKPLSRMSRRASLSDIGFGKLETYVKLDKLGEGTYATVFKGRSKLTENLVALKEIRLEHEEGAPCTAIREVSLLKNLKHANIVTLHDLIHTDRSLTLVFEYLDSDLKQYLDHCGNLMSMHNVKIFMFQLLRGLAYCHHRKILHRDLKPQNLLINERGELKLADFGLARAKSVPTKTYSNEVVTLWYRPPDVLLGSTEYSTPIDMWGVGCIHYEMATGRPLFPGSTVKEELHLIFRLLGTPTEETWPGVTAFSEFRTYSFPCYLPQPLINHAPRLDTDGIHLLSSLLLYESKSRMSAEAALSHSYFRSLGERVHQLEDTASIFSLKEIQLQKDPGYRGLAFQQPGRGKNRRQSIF
T6 sequence (Q8ND76 whole entry partner): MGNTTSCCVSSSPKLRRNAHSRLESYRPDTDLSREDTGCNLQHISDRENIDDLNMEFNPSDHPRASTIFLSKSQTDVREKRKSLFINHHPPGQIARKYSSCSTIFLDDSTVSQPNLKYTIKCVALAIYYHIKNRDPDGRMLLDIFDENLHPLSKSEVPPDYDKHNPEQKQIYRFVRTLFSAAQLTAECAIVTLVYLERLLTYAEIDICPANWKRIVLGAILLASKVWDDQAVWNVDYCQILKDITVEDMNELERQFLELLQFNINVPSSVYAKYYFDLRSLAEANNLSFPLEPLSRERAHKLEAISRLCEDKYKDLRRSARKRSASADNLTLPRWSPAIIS
On the procedure: as §1

Another assay has as its target T7, KIT (Homo sapiens, UniProt P10721).
T7 construct: purchased ProQinase (Freiburg, Germany)
As for the experimental part:
as §1

The target of another assay is T8, WEE1 (Homo sapiens, UniProt P30291).
T8 construct: purchased ProQinase (Freiburg, Germany)
T8 sequence (P30291 whole entry): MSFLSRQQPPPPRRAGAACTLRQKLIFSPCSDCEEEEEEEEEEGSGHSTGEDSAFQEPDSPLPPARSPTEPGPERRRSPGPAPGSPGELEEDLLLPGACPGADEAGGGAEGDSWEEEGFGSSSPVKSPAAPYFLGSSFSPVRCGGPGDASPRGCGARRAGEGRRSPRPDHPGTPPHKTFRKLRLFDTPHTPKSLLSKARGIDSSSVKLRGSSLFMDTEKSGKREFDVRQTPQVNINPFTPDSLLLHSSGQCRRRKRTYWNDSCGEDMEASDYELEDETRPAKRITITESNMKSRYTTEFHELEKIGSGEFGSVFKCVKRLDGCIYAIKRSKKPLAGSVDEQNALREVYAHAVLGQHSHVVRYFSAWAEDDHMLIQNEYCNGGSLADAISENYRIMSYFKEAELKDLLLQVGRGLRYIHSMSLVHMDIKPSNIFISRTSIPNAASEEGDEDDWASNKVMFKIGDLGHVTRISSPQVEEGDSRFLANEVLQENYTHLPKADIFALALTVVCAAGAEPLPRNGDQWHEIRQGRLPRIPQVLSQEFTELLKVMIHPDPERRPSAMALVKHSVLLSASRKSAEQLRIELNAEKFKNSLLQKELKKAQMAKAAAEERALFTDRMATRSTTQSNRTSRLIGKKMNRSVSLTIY
On the procedure: as §1

T7 sequence (P10721 26-976): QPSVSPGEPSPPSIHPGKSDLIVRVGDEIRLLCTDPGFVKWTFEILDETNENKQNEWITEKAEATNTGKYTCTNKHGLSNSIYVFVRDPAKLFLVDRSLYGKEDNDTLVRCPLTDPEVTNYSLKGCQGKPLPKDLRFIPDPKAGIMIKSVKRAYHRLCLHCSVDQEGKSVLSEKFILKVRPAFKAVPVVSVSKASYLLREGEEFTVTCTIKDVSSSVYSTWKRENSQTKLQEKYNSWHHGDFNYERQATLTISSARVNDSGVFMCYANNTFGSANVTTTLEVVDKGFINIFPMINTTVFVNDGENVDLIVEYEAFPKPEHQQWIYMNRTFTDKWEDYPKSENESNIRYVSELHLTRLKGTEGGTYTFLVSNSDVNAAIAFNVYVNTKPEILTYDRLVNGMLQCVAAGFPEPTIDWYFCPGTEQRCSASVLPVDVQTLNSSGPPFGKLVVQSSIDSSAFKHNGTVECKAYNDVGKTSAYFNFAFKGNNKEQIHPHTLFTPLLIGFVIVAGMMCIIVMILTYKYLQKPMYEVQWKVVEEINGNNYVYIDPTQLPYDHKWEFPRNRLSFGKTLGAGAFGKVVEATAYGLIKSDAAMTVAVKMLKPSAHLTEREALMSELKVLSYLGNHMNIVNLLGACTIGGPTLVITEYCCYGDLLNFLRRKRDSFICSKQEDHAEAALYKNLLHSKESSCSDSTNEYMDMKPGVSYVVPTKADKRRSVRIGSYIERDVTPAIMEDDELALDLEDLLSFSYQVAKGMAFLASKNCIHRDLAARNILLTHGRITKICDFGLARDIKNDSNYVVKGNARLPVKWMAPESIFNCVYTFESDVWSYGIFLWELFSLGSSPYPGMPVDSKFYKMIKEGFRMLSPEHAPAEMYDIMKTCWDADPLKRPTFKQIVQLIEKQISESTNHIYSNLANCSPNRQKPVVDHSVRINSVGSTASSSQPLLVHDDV
T2 sequence (Q9NQU5 whole entry): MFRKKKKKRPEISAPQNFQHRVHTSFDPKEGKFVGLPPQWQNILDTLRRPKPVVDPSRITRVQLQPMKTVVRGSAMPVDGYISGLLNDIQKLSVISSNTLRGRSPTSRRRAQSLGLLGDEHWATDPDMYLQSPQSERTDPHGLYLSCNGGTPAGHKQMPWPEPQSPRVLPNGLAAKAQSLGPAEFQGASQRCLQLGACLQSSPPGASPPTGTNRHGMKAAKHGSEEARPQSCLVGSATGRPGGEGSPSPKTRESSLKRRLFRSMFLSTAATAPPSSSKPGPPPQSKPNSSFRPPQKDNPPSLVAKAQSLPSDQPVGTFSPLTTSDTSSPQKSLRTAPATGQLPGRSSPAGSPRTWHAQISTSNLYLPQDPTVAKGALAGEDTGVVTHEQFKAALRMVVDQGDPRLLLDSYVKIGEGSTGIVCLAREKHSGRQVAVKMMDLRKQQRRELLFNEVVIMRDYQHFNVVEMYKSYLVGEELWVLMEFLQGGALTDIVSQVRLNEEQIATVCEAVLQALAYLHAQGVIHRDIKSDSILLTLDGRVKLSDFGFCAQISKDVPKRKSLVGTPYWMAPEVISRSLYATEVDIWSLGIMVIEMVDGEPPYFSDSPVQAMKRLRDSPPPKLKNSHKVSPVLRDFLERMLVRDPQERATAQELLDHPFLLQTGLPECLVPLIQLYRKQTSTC
T3 sequence (P11802 whole entry): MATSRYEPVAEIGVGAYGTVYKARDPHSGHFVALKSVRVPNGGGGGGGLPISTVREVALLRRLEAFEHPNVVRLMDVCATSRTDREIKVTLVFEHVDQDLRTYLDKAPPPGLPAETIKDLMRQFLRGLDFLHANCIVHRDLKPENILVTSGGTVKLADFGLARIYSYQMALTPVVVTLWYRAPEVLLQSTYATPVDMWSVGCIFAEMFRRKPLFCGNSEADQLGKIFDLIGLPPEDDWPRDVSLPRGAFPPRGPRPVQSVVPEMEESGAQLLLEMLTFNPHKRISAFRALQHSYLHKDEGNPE
T3 sequence (P30279 whole entry partner): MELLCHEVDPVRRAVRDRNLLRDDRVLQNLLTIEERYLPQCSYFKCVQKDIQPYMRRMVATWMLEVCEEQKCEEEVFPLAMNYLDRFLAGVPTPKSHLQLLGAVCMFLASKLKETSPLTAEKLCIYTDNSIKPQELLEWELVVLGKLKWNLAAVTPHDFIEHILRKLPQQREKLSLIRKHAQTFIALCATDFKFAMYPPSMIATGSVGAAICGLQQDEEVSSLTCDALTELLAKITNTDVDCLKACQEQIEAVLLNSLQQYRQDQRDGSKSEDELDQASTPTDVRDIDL

With `O=C(Cc1ccccc1)Nc1ccc(F)c(Nc2ccc3c(c2)CCCCC3=O)c1` [Compound 100], the Residual activity is 83 % of control on PRKG2 (1.0E-05 M); 94 % of control at PRKG2 (1.0E-06 M); 98 % of control at PAK6 (1.0E-05 M); 101 % of control at PAK6 (1.0E-06 M); 86 % of control at CDK4/CycD2 (1.0E-05 M); 94 % of control at CDK4/CycD2 (1.0E-06 M). Also, the Residual activity is recorded as 103 % of control at VRK1 (1.0E-05 M); 102 % of control at VRK1 (1.0E-06 M); 96 % of control at NEK1 (1.0E-05 M); 98 % of control at NEK1 (1.0E-06 M); 88 % of control at CDK18/CycY (1.0E-05 M); 93 % of control at CDK18/CycY (1.0E-06 M). The Residual activity on KIT (1.0E-05 M) is 78 % of control; on KIT (1.0E-06 M) it was 87 % of control; on WEE1 (1.0E-05 M), 100 % of control; at WEE1 (1.0E-06 M), 103 % of control.
As to `O=C(Nc1ccc(F)c(Nc2ccc3c(c2)CCCCC3=O)c1)c1cccc(F)c1` [Compound 109], the Residual activity was 84 % of control on PRKG2 (1.0E-05 M); 88 % of control at PRKG2 (1.0E-06 M); 90 % of control at PAK6 (1.0E-05 M); 99 % of control at PAK6 (1.0E-06 M); 91 % of control on CDK4/CycD2 (1.0E-05 M); 94 % of control at CDK4/CycD2 (1.0E-06 M). Besides, the Residual activity on VRK1 (1.0E-05 M) was 130 % of control; at VRK1 (1.0E-06 M), 100 % of control; at NEK1 (1.0E-05 M) it was 93 % of control; on NEK1 (1.0E-06 M) it was 96 % of control; at CDK18/CycY (1.0E-05 M), 98 % of control; at CDK18/CycY (1.0E-06 M), 91 % of control. The Residual activity on KIT (1.0E-05 M) was 78 % of control; on KIT (1.0E-06 M) it was 88 % of control; on WEE1 (1.0E-05 M), 95 % of control; on WEE1 (1.0E-06 M), 100 % of control.
